Experimental data from publication PMC12040169 (PLOS Biology, 2025).

Experiment: in vitro
Details: human, hela cells, % viability

Compound | viability at 28.5 h, 10 µM
CCCNc1nc(Nc2ccc(C)cc2)nc(N2CCOCC2)n1 [CBK266664] | 111%
O=C(O)CN(c1ccccc1[N+](=O)[O-])S(=O)(=O)c1ccccc1 [CBK263158] | 95.6%
COc1ccc2c(c1)CC(=O)NC21CCN(C(=O)NC(C)C)CC1 [CBK047261] | 95.7%
Cc1ccc(C(=O)N2CCC(C(=O)NC(c3ccccc3)c3ccsc3)CC2)cc1 (stereo not shown) [CBK060154] | 109%
COc1ccc(-c2cc(C3CCN(C4CCSCC4)C3)[nH]n2)cc1 (stereo not shown) [CBK285282] | 99.3%
FC(F)(F)Oc1cccc(-c2cncc(NCc3cccs3)n2)c1 [CBK065909] | 97.5%
COc1cc(C(c2c(C(=O)O)[nH]c3ccccc23)c2c(C(=O)O)[nH]c3ccccc23)cc(I)c1O [CBK267804] | 90.6%
CC(C)[C@H](CO)Nc1cncc(-c2ccccc2CO)n1 [CBK065326] | 88.6%
S=C(Nc1nc2c(s1)CCCC2)NC1CC1 [CBK288425] | 90.1%
Cc1ccc(C23CC4CC(CC(NC(=O)NC(Cc5ccccc5)C(=O)O)(C4)C2)C3)cc1 (stereo not shown) [CBK267423] | 93.7%
C=CCN(C)C(=O)[C@H]1C[C@@H](O)[C@H](O)[C@@H]2N=C(Nc3ccc(Cl)cc3)S[C@@H]21 [CBK288946] | 87%
CSc1nc(SCC(=O)N(c2ccccc2)c2ccccc2)c2c3c(sc2n1)CCC3 [CBK267715] | 90.6%
Cc1ccc2n1CCN(C(=O)c1cc(-c3ccccn3)n[nH]1)C2C(C)C (stereo not shown) [CBK282447] | 101%
O=c1cc(CSc2nnc(-c3ccccc3)[nH]2)nc2[nH]cnn12 [CBK294398] | 96.1%
OCc1ccc(-n2cc(-c3ccc(F)cc3F)nn2)cc1 [CBK112982] | 89.2%
COc1cccc2sc(Nc3nc4c(s3)C(=O)CC(C)(C)C4)nc12 [CBK287467] | 86%
CCCCN(C=O)c1c(CC)nc2ccc(C(=O)Nc3ccc(Cl)c(Cl)c3)cn12 [CBK145470] | 84.1%
O=C(CSc1nnc(-c2cc(Br)ccc2O)[nH]1)NCCc1ccccc1 [CBK269007] | 85.8%
COc1ccccc1CC(=N)NOC(=O)COc1cccc2ccccc12 [CBK263012] | 94.2%
CCCCc1c(O)[nH]c2nc3ccccc3n2c1=O [CBK287875] | 98.1%
CCc1ccc(-c2csc(NS(=O)(=O)c3cccc(C(=O)O)c3)n2)cc1 [CBK296726] | 91%
COc1ccc2nc(C)cc(N3CCOCC3)c2c1 [CBK066896] | 91.2%

Compound | viability at 28.5 h, 10 µM
CN(C)CCn1c2c(c3ccccc31)CCCn1nnnc1-2 [CBK267713C] | 94.8%
Cc1ccc(S(=O)(=O)N(C)c2ccnc(N3CCNCC3)n2)cc1 [CBK200009] | 107%
C[C@]12CN(C(=O)C3CCCC3)C[C@H]1NC(=O)c1ccccc1C2=O [CBK281672] | 95.4%
Cc1ccc2nc(C(=O)O)cc(OCC(=O)Nc3ccccc3F)c2c1 [CBK287255] | 88.8%
CCOC(=O)c1c(NC(=O)CN2CC(C)OC(C)C2)sc2c1CCCC2 (stereo not shown) [CBK265216] | 103%
CCOc1ccc(C2(C)C(=O)N(CN3CCOCC3)C(=O)N2CN2CCOCC2)cc1 (stereo not shown) [CBK261359] | 96%
Cc1nnc(NC(=O)c2ccc3c(c2)OCO3)s1 [CBK287358] | 104%
Cc1cnc(NC(=O)c2ncoc2-c2cccs2)s1 [CBK283977] | 102%
CCCc1cnc(N2CCN(S(=O)(=O)c3ccc(NC(C)=O)cc3Cl)CC2)nc1 [CBK086208] | 117%
Cc1nc(SCC(=O)O)nc(O)c1Oc1ccccc1 [CBK263621] | 103%
CCC(CN1CCOCC1)NC(=O)Cc1c(C)[nH]c2ccc(F)cc12 (stereo not shown) [CBK282774] | 92.6%
Cc1cc(C)nc(SCC(=O)N/N=C2/C(=O)Nc3ccccc32)n1 [CBK262883] | 108%
O=C(/C=C/c1cccc2ccccc12)N1CCCCCC1 [CBK264092] | 111%
COc1cc(NC(=O)c2nn3c(c2Br)NC(c2cccs2)CC3C(F)(F)F)c(OC)cc1Cl (stereo not shown) [CBK263573] | 93.1%
CCc1nnc(SCC(=O)Nc2ccc(CN3CCOCC3)cc2)[nH]1 [CBK306097] | 84.7%
O=C(Cn1cc(C(=O)NCc2ccccc2)ccc1=O)NC1(c2ccccc2)CCCC1 [CBK285753] | 95.7%
O=S(=O)(Nc1nnn[nH]1)c1cccc2nonc12 [CBK062380] | 104%
COCCn1c(=O)n(CC=C(C)C)c2cccnc21 [CBK283534] | 92.1%
OC1(c2ccccn2)CCN(CCc2ccccc2)CC1 [CBK282904] | 87.2%
O=C(Nc1cnc(-c2cccc(C(F)(F)F)c2)c(-c2ccco2)n1)c1cccnc1 [CBK036714] | 95.3%
O=C(c1ccc2ccccc2c1)C12CN3CN(CN(C3)C1)C2 [CBK009031] | 89.1%
CSc1[nH]nc(N)c1-c1ccc([N+](=O)[O-])cc1 [CBK016751] | 88%

Compound | viability at 28.5 h, 10 µM
CC(=O)N1CCc2c([nH]c3ccccc23)C12CCCN(CCC#N)C2 (stereo not shown) [CBK039665] | 91.6%
CCC(=O)NC(Nc1cc(Cl)ccc1OC)(C(F)(F)F)C(F)(F)F [CBK261342] | 96.3%
O=C(CCCCCN1C(=O)c2ccccc2C1=O)NO [CBK288514] | 80.2%
CCn1cc(S(=O)(=O)NC2(c3ccc(F)cc3)CC2)c(C)n1 [CBK282837] | 92.4%
O=C(O)CCC(=O)Nc1ccc2c(c1)oc1ccccc12 [CBK261597] | 86.3%
CC(=O)Nc1cccc(-c2cnc(N)c(N3CCC(C(=O)O)CC3)n2)c1 [CBK063657] | 98.9%
COc1ccc(CCC(=O)Nc2nnc[nH]2)cc1 [CBK027896] | 101%
CCN(CC)CCN1CCN(c2cc(-c3ccsc3)ncn2)CC1 [CBK036973] | 93.7%
COCc1cccc(-c2ncc(OCc3ccccn3)nc2N)c1 [CBK145108] | 93.9%
O=C(O)CCC(NC(=O)c1ccc(I)cc1)C(=O)O (stereo not shown) [CBK087614] | 95.8%
Cc1csc(-c2cn3ccnc3c(N(C)CCN(C)C)n2)c1 [CBK066553] | 96.3%
COC(=O)[C@@H]1CN(C(=O)c2ccc(OC)cc2)CCN1C(C)=O [CBK289578] | 97.5%
O=C(O)C1CCCCC1C(=O)N1CCN(C(c2ccccc2)c2ccccc2)CC1 (stereo not shown) [CBK265480] | 90.7%
Cc1ccn2c(CN3CCC(n4nc(C)cc4C)CC3)c(C)nc2c1 [CBK281616] | 83.6%
COc1ccc(C(=O)Nc2ccc(N3CCN(C(=O)C(C)(C)C)CC3)cc2)cc1OC [CBK270245] | 90.6%
CCc1nn(CC(=O)NC2CC2)c(=O)c2cc3sccc3n12 [CBK284029] | 88.7%
Cc1nnc(N2C(=O)c3oc4ccccc4c(=O)c3C2c2ccc(OCc3ccccc3)cc2)s1 (stereo not shown) [CBK266287] | 94.9%
CCc1nn(CC(=O)N2CCCC2)c(=O)c2cc3occc3n12 [CBK283748] | 93.3%
COc1ccc(NC(=O)c2cnc(-c3cccc(C(F)(F)F)c3)c(-c3ccncc3)c2)cc1 [CBK037593] | 87.3%
CC1CCN(S(=O)(=O)c2ccc(NC(=O)COc3ccc([N+](=O)[O-])cc3)cc2)CC1 [CBK264994] | 95.4%
CN1C[C@@H](NC(=O)c2ccc3c(c2)OCO3)C[C@H]1c1nc(-c2ccc(Cl)cc2)no1 [CBK288854] | 90.6%
c1cnn(CCNc2nc3nonc3nc2N2CCCCC2)c1 [CBK306740] | 83.8%

Compound | viability at 28.5 h, 10 µM
Cc1ccc(-c2c[nH]c([C@@H]3COCCN3Cc3c[nH]c4ccccc34)n2)cc1 [CBK289308] | 106%
Cc1ccc2c(c1)OC(C)(C)CC2NS(C)(=O)=O (stereo not shown) [CBK307620] | 81.5%
COc1ccc2c(c1)cc(C(=O)NCc1cncn1CC(C)C)n2C [CBK307193] | 89.3%
Cc1ccc(N(C(C)C(=O)Nc2ccccc2C(F)(F)F)S(C)(=O)=O)cc1 (stereo not shown) [CBK268796] | 84.5%
COc1ccc(-c2cnc(NCC3CC3)c(C(=O)NCc3ccccc3SC)c2)cc1 [CBK076437] | 110%
CC(C)(C)C(=O)CSc1nnc(Cn2cnc(Cl)c2Cl)o1 [CBK011055] | 81.2%
COCCCNC(=O)c1cccs1 [CBK009164] | 91.8%
O=C(O)c1cc(NS(=O)(=O)c2ccc([N+](=O)[O-])cc2)ccc1O [CBK296077] | 110%
CN(Cc1ccco1)C(=O)c1cccc(NC(=O)C2CC2)c1 [CBK304857] | 101%
c1coc(CNc2nccnc2-c2cccs2)c1 [CBK036618] | 85.5%
Clc1ccccc1-c1cn2ccnc2c(NCc2cccnc2)n1 [CBK038039] | 94.5%
CCOC(=O)c1cnn(C2CCCN(Cc3cccs3)C2)c1 (stereo not shown) [CBK305121] | 99.5%
O=C(O)c1[nH]c2ccccc2c1C(c1ccc(OC2CCCC2)cc1)c1c(C(=O)O)[nH]c2ccccc12 [CBK267789] | 85.9%
Cc1nn(C)c(N2CCNCC2)c1NC(=O)/C=C/c1cccnc1 [CBK050354T] | 95.4%
COCCNc1cc(-c2ccc(F)c(F)c2)ncn1 [CBK090800] | 100%
CC(=O)N1N=C(COc2ccc3c(c2)OCO3)OC1c1ccc(C)cc1 (stereo not shown) [CBK294397] | 83%
CCNC(=O)c1cncc(-c2[nH]nnc2-c2ccccc2)c1 [CBK160354] | 96.9%
Nc1nonc1-n1nnc(C(=O)N/N=C2\CCc3ccccc32)c1-c1ccccc1 [CBK261988] | 95.1%
O=C(/C=C/c1ccc(C(=O)Nc2cccnc2)cc1)Nc1cccnc1 [CBK265617] | 66.7%
O=S(=O)(NC[C@H]1C[C@@H]2CCN1C[C@@H]2CN1CCOCC1)c1ccccc1 [CBK288760] | 92.9%
Clc1ccc(Nc2nnc(-c3[nH]ncc3NCc3ccncc3)o2)cc1 [CBK288588] | 99%

Same assay, conditions: human, hela cells, % viability, bulk resorufin, single well

Compound | viability at 28.5 h, 10 µM
COc1cccc2c1OC1(CCN(C(=O)c3cccn3C)CC1)OC2 [CBK061166] | 85.1%
